Reference: patent US20250057849A1, “ANTIVIRAL COMPOSITION COMPRISING NUCLEOSIDE ANALOGUES DERIVED FROM NUCLEIC ACID AND PHARMACEUTICALLY ACCEPTABLE SALT THEREOF” (CJ CheilJedang Corporation, priority 2021, published 2025)
Where two headings read alike, the source gives them in different places.

Legend:
MDCK cell line = experiment: Cytotoxicity, MDCK cell tests; details: cytotoxicity
[1] = Cytotoxicity, MDCK cell tests; details: dog, MDCK cells
[2] = mouse, in vivo
[3] = system: PEDV (G1a type, SM98 strain); experiment: PEDV infection inhibition in Vero cells (PEDV detection kit on isolated RNA); format: cell-based, Porcine Epidemic Diarrhea virus; details: for IC50: Vero cells, 200 TCID50/ml PEDV, after 2 days, read-out: PEDV infection inhibition concentration IC50
Experimental: The next day, PEDV (G1a type, SM98 strain) of 200 TCID50/ml and inosine, xanthosine and guanosine in the dialdehyde and acyclic diol forms were treated to the cells simultaneously, and after 2 days, using commercialized Viral gene (DNA/RNA) extraction kit (iNtRON, 101410754), RNA was isolated. For the isolated RNA, using commercialized PEDV detection kit (Mediandiagnostics, NS-PED-31), the antiviral efficacy of the materials was verified.

PCV2 = PCV2 infection inhibition in PK15 cells (qPCR); format: cell-based, Porcine Circovirus Type 2; details: for IC50: PK15 cells, 200 TCID50/well PCV2, after 4 days, read-out: PCV2 infection inhibition concentration IC50
Experimental: For the isolated DNA, using PCV2-specific primers (F-[…] , R-[…] ) and realtime RT-qPCR experimental method (95° C., 30 seconds 1 cycle, 95° C., 20 seconds, 56° C., 60 seconds 40 cycles), the antiviral efficacy of the materials was verified.

in vitro = details: monkey
BRV = BRV infection inhibition in MDBK cells (RT-qPCR); format: cell-based, Bovine Rotavirus; details: for IC50: MDBK cells, 200 TCID50/well BRV, after 4 days, read-out: BRV infection inhibition concentration IC50
Experimental: The next day, BRV of 200 TCID50/well and inosine, xanthosine and guanosine in the dialdehyde and acyclic diol forms were treated to the cells simultaneously, and after 4 days, using commercialized Viral gene (DNA/RNA) extraction kit (iNtRON, 101410754), RNA was isolated.
For the isolated RNA, using BRV-specific primers (F-[…] , R-[…] ) and realtime RT-qPCR experimental method (95° C., 10 minutes 1 cycle, 95° C., 15 seconds, 60° C., 15 seconds, 72° C., 20 seconds 40 cycles), the antiviral efficacy of the materials was confirmed.

[4] = system: Swine Influenza virus (SIV); experiment: organism not typed; format: cell-based; details: for IC50: read-out: SIV infection inhibition concentration IC50
[5] = Water solubility (stated); format: physicochemical
[6] = Cytotoxicity (WST-1 / DAPI staining), PRRSV test cells; details: monkey, Marc-145 cells (monkey kidney)
[7] = system: Influenza virus (2009 pandemic strain, CA04); details: for abnormal lesions due to fed materials (liver, stomach, spleen, kidney, heart, small intestine, large intestine): 250 mg/kg
IBV = experiment: microbe, parasite or virus in culture; format: cell-based, Avian Infectious Bronchitis virus; details: for IC50: read-out: IBV infection inhibition concentration IC50
CPV = CPV infection inhibition in MDCK cells (qPCR); format: cell-based, Canine Parvovirus; details: for IC50: MDCK cells, 200 TCID50/well CPV, after 4 days, read-out: CPV infection inhibition concentration IC50 (Table 10)
Experimental: For the isolated DNA, using CPV-specific primers (F-[…] , R-[…] ) and realtime RT-qPCR experimental method (95° C., 5 minutes 1 cycle, 95° C., 10 seconds, 60° C., 30 seconds, 40 cycles), the antiviral efficacy of the materials was confirmed.

[8] = Cytotoxicity, PK15 cell test; details: pig, PK15 cells
PRV = experiment: microbe, parasite or virus in culture; format: cell-based, Porcine Rotavirus; details: for IC50: read-out: PRV infection inhibition concentration IC50
NDV = experiment: microbe, parasite or virus in culture; format: cell-based, Avian Newcastle Disease virus; details: for IC50: read-out: NDV infection inhibition concentration IC50
PRRSV (NA strain) = experiment: PRRS virus challenge test using piglets
[9] = system: PRRSV (NA type, VR-2332 strain); experiment: PRRSV infection inhibition in Marc-145 cells (immunofluorescence staining); format: cell-based, Porcine Reproductive and Respiratory Syndrome virus; details: for IC50: Marc-145 cells, 100 TCID50/ml PRRSV, three days after treatment, read-out: PRRSV infection inhibition concentration IC50
BVDV = BVDV infection inhibition in MDBK cells (RT-qPCR); format: cell-based, Bovine Viral Diarrhea virus; details: for IC50: MDBK cells, 200 TCID50/well BVDV, after 4 days, read-out: BVDV infection inhibition concentration IC50
Experimental: The next day, BVDV of 200 TCID50/well and inosine, xanthosine and guanosine in the dialdehyde and acyclic diol forms were treated to the cells simultaneously, and after 4 days, using commercialized Viral gene (DNA/RNA) extraction kit (iNtRON, 101410754), RNA was isolated.
For the isolated RNA, using BVDV-specific primers (F-[…] , R-[…] ) and realtime RT-qPCR experimental method (94° C., 10 minutes 1 cycle, 94° C., 10 seconds, 53° C., 20 seconds, 72° C., 30 seconds 35 cycles), the antiviral efficacy of the materials was verified.

MDBK cell line = experiment: Cytotoxicity, MDBK cell tests; details: cytotoxicity
[10] = Cytotoxicity, MDBK cell tests; details: bovine, MDBK cells
Marc-145 cell line = experiment: Cytotoxicity (WST-1 / DAPI staining), PRRSV test cells
PK15 cell line = experiment: Cytotoxicity, PK15 cell test; details: read-out: CC50 (Table 3, PCV2); cytotoxicity
[11] = mice, 100 MLD50 CA04, 250 mg/kg intragastric
[12] = autopsy at 2 weeks, 50 mg/kg/day oral

Compound: O=C[C@@H](CO)O[C@H](C=O)n1cnc2c(=O)[nH]c(=O)[nH]c21 [Dialdehyde-xanthosine, dialdehyde form of xanthosine]
- CC50 (MDCK cell line; read-out: CC50 (Table 10, CPV)): > 10000 µM
- CC50 [1]: > 10000 µM
- half-life tendency compared with guanosine in the dialdehyde form [2]: shorter
- time when 50% of the remaining materials was measured (based on AUC values) ([2]; ip, 50 mg/kg): about 6 hours
- time when 50% of the remaining materials was measured (based on AUC values) ([2]; po, 250 mg/kg): about 6 hours
- SI (selectivity index), PEDV ([3]; CC50/IC50): >25.1
- IC50 ([3]; Porcine epidemic diarrhea virus, 48 h): 398 µM
- SI (selectivity index), PCV2 (PCV2; CC50/IC50): >23
- IC50 (PCV2; Porcine circovirus 2, PK-15, 96 h): 436 µM
- CC50 (in vitro): > 10000 µM
- SI (selectivity index), BRV (BRV; CC50/IC50): >198.1
- IC50 (BRV; Rotavirus A, 96 h): 50.5 µM
- SI (selectivity index), SIV ([4]; CC50/IC50): >13.4
- IC50 ([4]; MDCK, 96 h): 748 µM
- water solubility [5]: slightly high
- CC50 [6]: > 10000 µM
- survival rate on the 7th day [7, 11]: 100%
- survival rate predicted on the 8th day based on all data up to the 7th day [7, 11]: 100%
- amount of the virus remaining in the lung tissue (PCR) ([7]; mouse, in vivo): lowest virus titer
- clinical symptoms after SIV challenge ([7]; mouse, in vivo): very mild symptoms
- lung lesions at autopsy ([7]; mouse, in vivo): mild lung lesions
- weight loss after SIV challenge ([7]; mouse, in vivo): very slight
- abnormal lesions due to fed materials (liver, stomach, spleen, kidney, heart, small intestine, large intestine) ([7]; mouse, in vivo): not observed
- IC50 (IBV; Avian coronavirus, Vero, 96 h): 226 µM
- SI (selectivity index), IBV (IBV; CC50/IC50): >44.3
- SI (selectivity index), CPV (CPV; CC50/IC50): >45.2
- IC50 (CPV; Canine parvovirus, 96 h): 221 µM
- CC50 [8]: > 10000 µM
- SI (selectivity index), PRV (PRV; CC50/IC50): >110.9
- IC50 (PRV; Rotavirus C, Vero, 72 h): ≤ 100 µM
- IC50 (PRV): 90.2 µM
- SI (selectivity index), NDV (NDV; CC50/IC50): >19
- IC50 (NDV; avian paramyxovirus 1, Vero, 72 h): 526 µM
- weight gain after PRRSV infection (PRRSV (NA strain); 50 mg/kg/day oral twice/day, 14 days): no delay in weight gain
- PRRS virus in lung by immunohistochemistry (PRRSV (NA strain); [12]): only a very small amount of viruses were detected
- interstitial pneumonia lesions, visual observation of lung (PRRSV (NA strain); [12]): relatively intact lung
- virus titer in lung tissue (PRRSV (NA strain); [12]): reduced compared to the positive control group
- SI (selectivity index), PRRSV ([9]; CC50/IC50): >133.3
- IC50 [9]: 75 µM
- IC50 (BVDV; Bovine viral diarrhea virus isolates and strains, 96 h): 97.8 µM
- SI (selectivity index), BVDV (BVDV; CC50/IC50): >102.2
- CC50 (MDBK cell line; read-out: CC50 (Table 9, BRV)): > 10000 µM
- CC50 [10]: > 10000 µM
- CC50 (Vero cell line; monkey): > 10000 µM

Compound: Nc1nc2c(ncn2[C@@H](C=O)O[C@@H](C=O)CO)c(=O)[nH]1 [Dialdehyde-guanosine, dialdehyde form of guanosine]
- CC50 (MDCK cell line; read-out: CC50 (Table 5, SIV)): > 6000 µM
- CC50 (MDCK cell line; read-out: CC50 (Table 10, CPV)): > 6000 µM
- time when 50% of the remaining materials was measured (based on AUC values) ([2]; ip, 50 mg/kg): about 6 hours
- time when 50% of the remaining materials was measured (based on AUC values) ([2]; po, 250 mg/kg): about 9 hours
- IC50 [3]: 157 µM
- IC50 (PCV2): 96.6 µM
- IC50 (BRV): 88.3 µM
- IC50 ([4]; MDCK cells, 200 TCID50/well SIV, after 4 days): 171 µM
- CC50 (Marc-145 cell line; read-out: CC50 (Table 1, PRRSV), cytotoxicity, WST-1): > 6000 µM
- cytotoxicity by DAPI staining (Marc-145 cell line; up to 1000 μM): no cytotoxicity was observed
- amount of the virus remaining in the lung tissue (PCR) ([7]; mouse, in vivo): slightly lower
- clinical symptoms after SIV challenge ([7]; mouse, in vivo): very mild symptoms
- lung lesions at autopsy ([7]; mouse, in vivo): mild lung lesions
- survival rate on the 7th day ([7]; mouse, in vivo): 80%
- survival rate predicted on the 8th day based on all data up to the 7th day ([7]; mouse, in vivo): 60%
- weight loss after SIV challenge ([7]; mouse, in vivo): very slight
- abnormal lesions due to fed materials (liver, stomach, spleen, kidney, heart, small intestine, large intestine) ([7]; mouse, in vivo): not observed
- IC50 (IBV; Vero cells, 200 TCID50/well IBV, after 4 days): 275 µM
- IC50 (CPV): 2060 µM
- CC50 (PK15 cell line): > 6000 µM
- IC50 (PRV): 177 µM
- IC50 (NDV; Vero cells, 200 TCID50/well NDV, after 3 days): 1120 µM
- IC50 [9]: 40 µM
- PRRSV infection inhibition ([9]; at 40 μM): 50%
- PRRSV infection inhibition ([9]; at 100 μM): ≥ 90%
- IC50 (BVDV): 2760 µM
- CC50 (MDBK cell line; read-out: CC50 (Table 8, BVDV)): > 6000 µM
- CC50 (MDBK cell line; read-out: CC50 (Table 9, BRV)): > 6000 µM
- CC50 (Vero cell line): > 6000 µM
